pEC50: −log10 of the molar value. Counter-ions that a name gives are not always drawn.
What was measured:
hMC1R = hMC1R (Homo sapiens (Human), UniProt Q01726); assay: Transactivation test: melanocortin receptors (pCRE-Luc luciferase reporter), hMC1R; type: cell-based; details: HEK293 transfected with pCRE-Luc and hMC1R; products tested alone (agonist), 6 h incubation; % activity vs NDP-MSH 10 nM; IA: inactive
Protocol: (§1) Transactivation Test: Melanocortin Receptors
(§2) HEK293 lines are transfected with the pCRE-Luc and hMC1R, hMC3R, hMC4R or hMC5R vectors. The cells are cultured at 37° C., 5% CO2, in DMEM medium supplemented with 10% of foetal calf serum.
(§3) In the presence of an activator (agonist), the melanocortin receptor will activate the cAMP pathway which, via the CRE-Luc vector, will result in the synthesis of luciferase. After the addition of a lysis buffer containing a luminescent substrate for luciferase, it will be possible to measure the luminescence proportional to the degree of activation or of inhibition of the receptor.
(§4) The products are solubilized at 10 mM in DMSO. They are tested in the form of dose-response at a final DMSO concentration of 0.1%. The range comprising 10 points and one zero begins at 10 μM with 4-fold dilutions. For testing agonists, the products are tested alone. For determining the behaviour of antagonists, the products of interest are tested in the presence of 1 nM NDP-MSH (reference agonist). The cells are seeded at a rate of 5000 cells per well (384 well plate) in serum-free DMEM medium, and incubated overnight at 37° C., 5% CO2.
(§5) The products and the reference ligand (NDP-MSH) are added the following day, and the plates are again incubated for 6 h at 37° C., 5% CO2. After the addition of lysis buffer containing luciferin, the plates are read on a Top-Count instrument. The results are standardized as % activity using the 100% (cells+NDP-MSH at 10 nM) and 0% (cells alone) controls. An EC50 is calculated for each product using the XLFit software. The results are given in nM.

hMC4R = hMC4R (Homo sapiens (Human), UniProt P32245); assay: Transactivation test: melanocortin receptors (pCRE-Luc luciferase reporter), hMC4R; type: cell-based; details: HEK293 transfected with pCRE-Luc and hMC4R; products tested alone (agonist), 6 h incubation; % activity vs NDP-MSH 10 nM; IA: inactive
Protocol: as §1, §2, §3, §4, §5

hMC1R, sequence (Q01726 whole entry): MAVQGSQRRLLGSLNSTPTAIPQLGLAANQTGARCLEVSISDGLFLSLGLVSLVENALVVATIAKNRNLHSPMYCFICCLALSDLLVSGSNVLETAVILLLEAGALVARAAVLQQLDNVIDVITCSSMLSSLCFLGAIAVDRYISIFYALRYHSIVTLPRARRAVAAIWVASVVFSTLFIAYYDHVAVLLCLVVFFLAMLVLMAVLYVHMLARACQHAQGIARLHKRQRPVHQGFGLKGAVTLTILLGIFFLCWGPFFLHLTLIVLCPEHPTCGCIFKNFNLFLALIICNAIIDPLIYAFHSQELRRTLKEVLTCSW
hMC4R, sequence (P32245 whole entry): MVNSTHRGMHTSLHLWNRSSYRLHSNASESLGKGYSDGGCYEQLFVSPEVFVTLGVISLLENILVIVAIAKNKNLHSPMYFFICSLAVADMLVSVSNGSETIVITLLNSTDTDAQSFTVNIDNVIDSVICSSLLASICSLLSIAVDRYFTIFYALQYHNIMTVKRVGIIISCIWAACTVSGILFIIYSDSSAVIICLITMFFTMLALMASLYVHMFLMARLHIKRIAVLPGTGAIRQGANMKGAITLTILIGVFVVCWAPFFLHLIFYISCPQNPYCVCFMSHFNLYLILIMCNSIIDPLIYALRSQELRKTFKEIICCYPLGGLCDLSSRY

Row | pEC50 (hMC1R) | pEC50 (hMC4R) | SMILES
1 | 6.30 | – | CCCC(=O)OC1(c2ccccc2)CN(C(=O)[C@H](Cc2ccc(OC)cc2)NC(=O)[C@H](Cc2c[nH]cn2)NC(=O)c2ccccc2)C1 [Compound 1, 1-[(S)-2-[(S)-2-benzoylamino-3-(1H-imidazol-4-yl)propionylamino]-3-(4-methoxyphenyl)propionyl]-3-phenylazetidin-3-yl ester of butyric acid]
2 | 6.60 | 5.40 | COc1ccc(C[C@H](NC(=O)[C@H](Cc2c[nH]cn2)NC(=O)c2ccccc2)C(=O)N2CC(O)(c3ccccc3C)C2)cc1 [Compound 4, N-[(S)-1-[(S)-2-(3-hydroxy-3-o-tolylazetidin-1-yl)-1-(4-methoxybenzyl)-2-oxoethylcarbamoyl]-2-(1H-imidazol-4-yl)ethyl]benzamide]
3 | 5.40 | 5.10 | COc1ccc(C[C@H](NC(=O)[C@H](Cc2c[nH]cn2)NC(=O)c2ccccc2)C(=O)N2CC(OC(C)=O)(c3ccccc3C)C2)cc1 [Compound 5, 1-[(S)-2-[(S)-2-benzoylamino-3-(1H-imidazol-4-yl)propionylamino]-3-(4-methoxyphenyl)propionyl]-3-o-tolylazetidin-3-yl acetate]
4 | 5.70 | 5.10 | CCCC(=O)OC1(c2ccc(F)cc2)CN(C(=O)[C@H](Cc2ccc(OC)cc2)NC(=O)[C@H](Cc2c[nH]cn2)NC(=O)c2ccccc2)C1 [Compound 6, 1-[(S)-2-[(S)-2-benzoylamino-3-(1H-imidazol-4-yl)propionylamino]-3-(4-methoxyphenyl)propionyl]-3-(4-fluorophenyl)azetidin-3-yl ester of butyric acid]
5 | 6.30 | 5.40 | COc1ccc(C[C@H](NC(=O)[C@H](Cc2c[nH]cn2)NC(=O)c2ccccc2)C(=O)N2CC(O)(C3CCCCC3)C2)cc1 [Compound 7, N-[(S)-1-[(S)-2-(3-cyclohexyl-3-hydroxyazetidin-1-yl)-1-(4-methoxybenzyl)-2-oxoethylcarbamoyl]-2-(1H-imidazol-4-yl)ethyl]benzamide]
6 | 5.10 | – | COc1ccc(C[C@H](NC(=O)CCc2c[nH]cn2)C(=O)N2CC(O)(C3CCCCC3)C2)cc1 [Compound 10, N-[(S)-2-(3-cyclohexyl-3-hydroxyazetidin-1-yl)-1-(4-methoxybenzyl)-2-oxoethyl]-3-(1H-imidazol-4-yl)propionamide]
7 | 5.40 | 5.10 | COc1ccc(C[C@H](NC(=O)CCc2c[nH]cn2)C(=O)N2CC(O)(c3ccccc3C)C2)cc1 [Compound 11, N-[(S)-2-(3-hydroxy-3-o-tolylazetidin-1-yl)-1-(4-methoxybenzyl)-2-oxoethyl]-3-(1H-imidazol-4-yl)propionamide]
8 | 5.10 | – | O=C(CCc1c[nH]cn1)N[C@H](Cc1ccc(Cl)c(Cl)c1)C(=O)N1CC(O)(c2ccccc2)C1 [Compound 12, N-[(R)-1-(3,4-dichlorobenzyl)-2-(3-hydroxy-3-phenylazetidin-1-yl)-2-oxoethyl]-3-(1H-imidazol-4-yl)propionamide]
9 | 5.70 | 4.82 | CCOC1(c2ccccc2C)CN(C(=O)[C@H](Cc2ccc(OC)cc2)NC(=O)CCc2c[nH]cn2)C1 [Compound 13, N-[(S)-2-(3-ethoxy-3-o-tolylazetidin-1-yl)-1-(4-methoxybenzyl)-2-oxoethyl]-3-(1H-imidazol-4-yl)propionamide]
10 | 5.70 | 4.82 | COc1ccc(C[C@H](NC(=O)CCc2c[nH]cn2)C(=O)N2CC(OCC3CC3)(c3ccccc3C)C2)cc1 [Compound 14, N-[(S)-2-(3-cyclopropylmethoxy-3-o-tolylazetidin-1-yl)-1-(4-methoxybenzyl)-2-oxoethyl]-3-(1H-imidazol-4-yl)propionamide]
11 | 5.40 | – | CCCOC1(c2ccccc2C)CN(C(=O)[C@H](Cc2ccc(OC)cc2)NC(=O)CCc2c[nH]cn2)C1 [Compound 21, N-[(S)-1-(4-methoxybenzyl)-2-oxo-2-(3-propoxy-3-o-tolylazetidin-1-yl)ethyl]-3-(1H-imidazol-4-yl)propionamide]
12 | 6.00 | – | COc1ccc(C[C@@H](NC(=O)CCc2c[nH]cn2)C(=O)N2CC(O)(c3ccccc3C)C2)cc1 [Compound 29, N-[(R)-2-(3-hydroxy-3-o-tolylazetidin-1-yl)-1-(4-methoxybenzyl)-2-oxoethyl]-3-(1H-imidazol-4-yl)propionamide]
13 | 6.60 | – | CCCCCC1(c2ccc(F)cc2)CN(C(=O)[C@@H](Cc2ccc(OC)cc2)NC(=O)CCc2c[nH]cn2)C1 [Compound 38, N-[(R)-2-[3-(4-fluorophenyl)-3-pentylazetidin-1-yl]-1-(4-methoxybenzyl)-2-oxoethyl]-3-(1H-imidazol-4-yl)propionamide]
14 | 7.52 | – | CCCCCC1(c2ccccc2F)CN(C(=O)[C@@H](Cc2ccc(OC)cc2)NC(=O)CCc2c[nH]cn2)C1 [Compound 43, N-[(R)-2-[3-(2-fluorophenyl)-3-pentylazetidin-1-yl]-1-(4-methoxybenzyl)-2-oxoethyl]-3-(1H-imidazol-4-yl)propionamide]
15 | 7.52 | – | CCCCCC1(c2ccccc2Cl)CN(C(=O)[C@@H](Cc2ccc(OC)cc2)NC(=O)CCc2c[nH]cn2)C1 [Compound 44, N-[(R)-2-[3-(2-chlorophenyl)-3-pentylazetidin-1-yl]-1-(4-methoxybenzyl)-2-oxoethyl]-3-(1H-imidazol-4-yl)propionamide]
16 | 6.00 | – | CCCCCC1(c2ccccc2)CN(C(=O)[C@@H](Cc2ccc(C(F)(F)F)cc2)NC(=O)CCc2c[nH]cn2)C1 [Compound 51, N-[(R)-2-oxo-2-(3-pentyl-3-phenylazetidin-1-yl)-1-(4-trifluoromethylbenzyl)ethyl]-3-(1H-imidazol-4-yl)propionamide]
17 | 6.60 | – | CCCCCC1(c2ccc(Cl)c(Cl)c2)CN(C(=O)[C@@H](Cc2ccc(OC)cc2)NC(=O)CCc2c[nH]cn2)C1 [Compound 54, N-[(R)-2-[3-(3,4-dichlorophenyl)-3-pentylazetidin-1-yl]-1-(4-methoxybenzyl)-2-oxoethyl]-3-(1H-imidazol-4-yl)propionamide]

Row | SMILES | pEC50 (hMC1R) | pEC50 (hMC4R)
18 | CCCCOC1(c2ccccc2C)CN(C(=O)[C@H](Cc2ccc(OC)cc2)NC(=O)[C@H](Cc2c[nH]cn2)NC(=O)c2ccccc2)C1 [Compound 2, N-[(S)-1-[(S)-2-(3-butoxy-3-o-tolylazetidin-1-yl)-1-(4-methoxybenzyl)-2-oxoethylcarbamoyl]-2-(1H-imidazol-4-yl)ethyl]benzamide] | 7.52 | 5.10
19 | CCCCOC1(c2ccccc2)CN(C(=O)[C@H](Cc2ccc(OC)cc2)NC(=O)[C@H](Cc2c[nH]cn2)NC(=O)c2ccccc2)C1 [Compound 3, N-[(S)-1-[(S)-2-(3-butoxy-3-phenylazetidin-1-yl)-1-(4-methoxybenzyl)-2-oxoethylcarbamoyl]-2-(1H-imidazol-4-yl)ethyl]benzamide] | 7.22 | 5.40
20 | CCCCOC1(c2ccc(F)cc2)CN(C(=O)[C@H](Cc2ccc(OC)cc2)NC(=O)[C@H](Cc2c[nH]cn2)NC(=O)c2ccccc2)C1 [Compound 8, N-[(S)-1-[(S)-2-[3-butoxy-3-(4-fluorophenyl)azetidin-1-yl]-1-(4-methoxybenzyl)-2-oxoethylcarbamoyl]-2-(1H-imidazol-4-yl)ethyl]benzamide] | 6.92 | 5.40
21 | CCCCOC1(c2cccc(F)c2)CN(C(=O)[C@H](Cc2ccc(OC)cc2)NC(=O)[C@H](Cc2c[nH]cn2)NC(=O)c2ccccc2)C1 [Compound 9, N-[(S)-1-[(S)-2-[3-butoxy-3-(3-fluorophenyl)azetidin-1-yl]-1-(4-methoxybenzyl)-2-oxoethylcarbamoyl]-2-(1H-imidazol-4-yl)ethyl]benzamide] | 6.92 | 6.00
22 | CCCCOC1(c2ccccc2C)CN(C(=O)C(Cc2ccc(OC)cc2)NC(=O)CC(CCC)c2c[nH]cn2)C1 (stereo not drawn) [Compound 62, N-[2-(3-butoxy-3-o-tolylazetidin-1-yl)-1-(4-methoxybenzyl)-2-oxoethyl]-3-(1H-imidazol-4-yl)hexyramide] | – | 6.30
23 | CCCCOC1(c2ccccc2C)CN(C(=O)C(Cc2ccc(Cl)cc2Cl)NC(=O)CC(CCC)c2c[nH]cn2)C1 (stereo not drawn) [Compound 65, N-[2-(3-butoxy-3-o-tolylazetidin-1-yl)-1-(2,4-dichlorobenzyl)-2-oxoethyl]-3-(1H-imidazol-4-yl)hexyramide] | – | 7.00
24 | CCCCOC1(c2ccccc2C)CN(C(=O)C(Cc2ccc(OC)cc2O)NC(=O)CCc2cnc[nH]2)C1 (stereo not drawn) [Compound 70, N-[2-(3-Butoxy-3-o-tolylazetidin-1-yl)-1-(2-hydroxy-4-methoxybenzyl)-2-oxoethyl]-3-(3H-imidazol-4-yl)propionamide trifluoroacetate] | 5.40 | –
25 | CCCCOC1(c2ccccc2C)CN(C(=O)[C@@H](Cc2ccc(O)cc2)NC(=O)CCc2cnc[nH]2)C1 [Compound 72, N-[(R)-2-(3-Butoxy-3-o-tolylazetidin-1-yl)-1-(4-hydroxybenzyl)-2-oxoethyl]-3-(3H-imidazol-4-yl)propionamide] | 5.70 | –

Reference: patent US9630949B2, “Oxoazetidine derivatives, process for the preparation thereof and use thereof in human medicine and in cosmetics” (GALDERMA RESEARCH & DEVELOPMENT, priority 2008, dated 2017)
